Laboratory results as given in the supplement of paper PMC10307832.

Tests used:
Test in all cases: relative viability (nuclei count vs DMSO), 5 days (fraction); higher = more cells survive
[1] = compound: CN(C)C(=N)NC(=N)N [Metformin] + N=C(N)NC(=N)NCCc1ccccc1 [Phenformin] (partner 250 µM)
Outline: (§1)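 The day after seeding in 1536-well plates, lung cancer cell lines were treated by pin tool with a single drug, or with a fixed anchor-drug dose together with five library-drug doses (not always all listed) in √10 steps. After 5 days, a combined fix-and-stain solution (final 0.05% Triton X-100, 1% formaldehyde, 1 ug/ml Hoechst) was added. Nuclei counted on 4× images gave relative viability as treated counts over vehicle counts, reported as the median of duplicate plates.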

[2] = compound: N#CC1(c2ccc(NC(=O)c3cccnc3NCc3ccncc3)cc2)CCCC1 [Apatinib] + CC1(C)CCC(c2ccc(Cl)cc2)=C(CN2CCN(c3ccc(C(=O)NS(=O)(=O)c4ccc(N[C@H](CCN5CCOCC5)CSc5ccccc5)c(S(=O)(=O)C(F)(F)F)c4)cc3)CC2)C1 [Navitoclax] (partner 0.5 µM)
Outline: as §1

[3] = compound: CN(C)C(=N)NC(=N)N [Metformin] + CC(=O)Nc1cccc(-n2c(=O)n(C3CC3)c(=O)c3c(Nc4ccc(I)cc4F)n(C)c(=O)c(C)c32)c1 [Trametinib] (partner 0.02 µM)
Outline: as §1

[4] = compound: CN(C)C(=N)NC(=N)N [Metformin] + Nc1ncn([C@H]2C[C@H](O)[C@@H](CO)O2)c(=O)n1 [Decitabine] (partner 2 µM)
Outline: as §1

Cell Line	relative viability ([1]; first compound 10 µM)	relative viability ([1]; first compound 31.62 µM)	relative viability ([1]; first compound 100 µM)	relative viability ([1]; first compound 316.23 µM)	relative viability ([1]; first compound 1000 µM)	relative viability ([2]; first compound 0.08 µM)	relative viability ([2]; first compound 0.253 µM)	relative viability ([2]; first compound 0.8 µM)	relative viability ([2]; first compound 2.53 µM)	relative viability ([2]; first compound 8 µM)	relative viability ([3]; first compound 31.62 µM)	relative viability ([3]; first compound 100 µM)	relative viability ([3]; first compound 316.23 µM)	relative viability ([3]; first compound 1000 µM)	relative viability ([4]; first compound 10 µM)	relative viability ([4]; first compound 31.62 µM)	relative viability ([4]; first compound 100 µM)	relative viability ([4]; first compound 316.23 µM)	relative viability ([4]; first compound 1000 µM)	relative viability ([3]; first compound 10 µM)
NCI-H1623	0.556	0.553	0.569	0.577	0.371	–	–	–	–	–	–	–	–	–	–	–	–	–	–	–
HCC-15	–	0.495	0.464	0.426	0.491	0.733	0.718	0.681	0.608	0.653	0.396	0.4	0.37	0.395	0.548	0.636	0.703	0.662	0.703	–
NCI-H441	–	0.707	0.706	0.586	0.803	1.07	0.5	0.728	0.519	0.31	0.575	0.573	0.442	0.639	–	0.236	0.262	0.217	0.262	–
NCI-H1993	0.479	0.481	0.514	0.532	0.499	1.13	0.822	0.813	0.688	0.772	0.634	0.497	0.425	0.611	0.616	0.681	0.672	0.634	0.766	0.477
NCI-H1915	–	0.357	0.384	0.352	0.365	0.838	0.819	0.778	0.783	0.732	0.302	0.302	0.289	–	–	0.263	0.255	0.245	0.269	–
ABC-1	0.292	0.244	0.251	0.202	0.19	–	–	–	–	–	–	–	–	–	–	1.12	1.2	1.54	0.548	–
NCI-H2087	–	0.435	0.507	0.398	0.386	1.06	1.05	0.847	0.963	0.782	0.222	0.18	0.152	0.254	0.251	0.231	0.294	0.294	0.3	0.232
NCI-H1755	0.543	0.626	0.639	0.613	0.632	1	0.968	0.963	0.952	0.865	0.626	0.656	0.682	0.676	0.685	0.535	0.643	0.644	0.635	0.683
HCC-366	0.403	0.679	0.616	0.644	0.734	1.1	1.08	1.04	0.961	1.01	0.289	0.23	0.279	0.314	0.288	0.293	0.306	0.291	0.289	0.301
NCI-H2170	0.369	0.434	0.444	0.441	0.469	0.617	0.646	0.568	0.599	0.498	0.779	0.903	0.869	0.945	0.415	0.436	0.417	0.395	0.471	0.789
NCI-H1792	0.412	0.442	0.396	0.462	0.383	0.572	0.596	0.569	0.559	0.592	0.483	0.567	0.431	0.433	0.449	0.428	0.482	0.386	0.496	0.566
SW 1573	0.422	0.387	0.492	0.414	0.364	1.01	1	1.19	0.927	0.885	0.559	0.522	0.211	0.367	0.508	0.637	0.44	0.431	0.421	0.67
HCC-827	–	0.412	0.376	0.365	0.373	1.07	1.06	0.956	0.998	0.781	0.567	0.616	0.577	0.605	0.321	0.315	0.312	0.322	0.364	0.575
NCI-H358	0.351	0.237	0.217	0.309	0.328	–	–	–	–	–	0.128	0.139	0.137	0.157	0.202	0.225	0.214	0.253	0.213	0.12
Calu-6	–	–	–	–	–	0.791	0.919	0.751	0.648	0.626	–	–	–	–	–	–	–	–	–	–
LOU-NH91	0.731	0.593	0.545	0.755	0.734	0.692	0.744	0.517	0.565	0.58	0.76	0.786	0.766	0.761	0.787	0.799	0.848	0.797	0.79	0.732
